Assay results reported in patent US20080063628A1, “METHODS TO PROMOTE CELL DIFFERENTIATION” (priority 2006, published 2008).

System: amniotic fluid-derived cell line AFCA009-A
Assay: Trichostatin A 24 h time course, gene expression by Real-Time PCR (Example 2)
Format: cell-based, human
Conditions: 1.25 μM
Protocol: Amniotic fluid derived cells were seeded into 24-well tissue culture plates at a density of 5000/cm^2 and cultured in AMNIOMAX medium (Invitrogen) under standard cell culture conditions until confluent. Cells were obtained according to methods described in Example 14. After reaching confluence, 1.25 μM trichostatin A diluted in DMSO and medium was added to sample wells; an equivalent concentration of DMSO was added to control wells as a no treatment control.
RNA samples were obtained from treated cultures at 30 minutes, 1.5 hours, 3 hours, 6 hours, 12 hours, and 24 hours following addition of trichostatin A or DMSO. Culture medium was removed, cells were washed with PBS, and RLT lysis buffer with β-mercaptoethanol (Qiagen) was added. RNA was purified using the RNeasy Mini Kit (Qiagen). RNA quantity and quality was determined using a spectrophotometer, and cDNA was made using the iScript cDNA synthesis kit (BioRad).
Expression levels of Sox17, HNF-3 beta, Pdx-1, insulin, and glucagon were determined by Real-Time PCR. Samples of 20 ng cDNA were used in each reaction, performed on the Applied Biosystems 7500 according to methods described in Example 15. Data analysis was performed using the accompanying software. Human pancreas cDNA was included as a positive control, and results were normalized against GAPDH expression levels.
Real-time PCR amplifcation and quantitative analysis. Unless otherwise stated, all reagents were purchased from Applied Biosystems. Real-time PCR reactions were performed using the ABI PRISM™ 7500 Sequence Detection System. TAQMAN™ FAST UNIVERSAL PCR MASTER MIX™ (ABI, CA) was used with 20 ng of reverse transcribed RNA in a total reaction volume of 20 μl. Each cDNA sample was run in duplicate to allow correction of pipetting errors. Primers and FAM-labeled TAQMAN™ probes were used at concentrations of 200 nM. The level of expression for each target gene was normalized using the pre-developed Applied Biosystem's human glyceraldehyde-3-phosphate dehydrogenase (GAPDH) endogenous control kit. Primers and probes were designed using either ABI PRISM PRIMER EXPRESS™ software or a pre-developed ABI gene analysis kit. For each gene, either one of the primers or the probe were designed to be exon-boundary spanning. This eliminated the possibility of the primers/probe binding to any genomic DNA present. The primer and probe sets are listed as follows: Pdx-1 (Hs00426216), Insulin (Hs00355773), glucagon (Hs00174967), and FoxA2 (HNF 3-beta) (Hs00232764). The remaining primers were designed using the PRIMERS program (ABI, CA). After an initial 95° C. incubation for 20 sec, samples were cycled 40 times in two stages: a denaturation step at 95° C. for 3 sec, followed by an annealing/extension step at 60° C. for 30 sec.
For each primer/probe set, a cycle time value was determined as the cycle number at which the fluorescence intensity of the PCR reaction reached a specific value in the middle of the exponential region of amplification. An increase in expression of a gene corresponded to a decrease in the number of cycles required for the fluorescence intensity to reach this value.

For CC(/C=C/C(=O)NO)=C\[C@@H](C)C(=O)c1ccc(N(C)C)cc1 [trichostatin A], the HNF-3 beta gene expression (0.5 h) was “+ (detectable between 35 and 40 cycles by RT-PCR)”, the Insulin gene expression (0.5 h) was “+ (detectable between 35 and 40 cycles by RT-PCR)” and the PDX-1 gene expression (0.5 h) was “nd (not detectable at >40 cycles by RT-PCR)”. The Sox17 gene expression (0.5 h) was “+++ (detectable at less than 35 cycles by RT-PCR with std error less than 0.9)”, the glucagon gene expression (0.5 h) was “nd (not detectable at >40 cycles by RT-PCR)” and the “HNF-3 beta RT-PCR detection cycle” value (30 minutes) was > 35 cycles. The HNF-3 beta gene expression (1.5 h) was “+ (detectable between 35 and 40 cycles by RT-PCR)”, the Insulin gene expression (1.5 h) was “+ (detectable between 35 and 40 cycles by RT-PCR)” and the PDX-1 gene expression (1.5 h) was “nd (not detectable at >40 cycles by RT-PCR)”. The Sox17 gene expression (1.5 h) was “+++ (detectable at less than 35 cycles by RT-PCR with std error less than 0.9)”, the glucagon gene expression (1.5 h) was “nd (not detectable at >40 cycles by RT-PCR)” and the HNF-3 beta gene expression (3 h) was “+++ (detectable at less than 35 cycles by RT-PCR with std error less than 0.9)”. For the same molecule, the Insulin gene expression (3 h) was “+ (detectable between 35 and 40 cycles by RT-PCR)”, the PDX-1 gene expression (3 h) was “nd (not detectable at >40 cycles by RT-PCR)” and the Sox17 gene expression (3 h) was “+++ (detectable at less than 35 cycles by RT-PCR with std error less than 0.9)”. For the same molecule, the glucagon gene expression (3 h) was “nd (not detectable at >40 cycles by RT-PCR)”, the HNF-3 beta gene expression (6 h) was “+++ (detectable at less than 35 cycles by RT-PCR with std error less than 0.9)” and the Insulin gene expression (6 h) was “nd (not detectable at >40 cycles by RT-PCR)”. The PDX-1 gene expression (6 h) was “+ (detectable between 35 and 40 cycles by RT-PCR)”, the Sox17 gene expression (6 h) was “+++ (detectable at less than 35 cycles by RT-PCR with std error less than 0.9)” and the glucagon gene expression (6 h) was “nd (not detectable at >40 cycles by RT-PCR)”. For the same molecule, the “Pdx-1 RT-PCR detection cycle” value (6 hours) was > 35 cycles, the HNF-3 beta gene expression (12 h) was “+++ (detectable at less than 35 cycles by RT-PCR with std error less than 0.9)” and the Insulin gene expression (12 h) was “+ (detectable between 35 and 40 cycles by RT-PCR)”. For the same molecule, the PDX-1 gene expression (12 h) was “+++ (detectable at less than 35 cycles by RT-PCR with std error less than 0.9)”, the Sox17 gene expression (12 h) was “+++ (detectable at less than 35 cycles by RT-PCR with std error less than 0.9)” and the glucagon gene expression (12 h) was “+ (detectable between 35 and 40 cycles by RT-PCR)”. For the same molecule, the “glucagon RT-PCR detection cycle” value (12 hours) was > 35 cycles, the HNF-3 beta gene expression (24 h) was “+++ (detectable at less than 35 cycles by RT-PCR with std error less than 0.9)” and the Insulin gene expression (24 h) was “+ (detectable between 35 and 40 cycles by RT-PCR)”. The PDX-1 gene expression (24 h) was “+++ (detectable at less than 35 cycles by RT-PCR with std error less than 0.9)”, the Sox17 gene expression (24 h) was “+++ (detectable at less than 35 cycles by RT-PCR with std error less than 0.9)” and the glucagon gene expression (24 h) was “+++ (detectable at less than 35 cycles by RT-PCR with std error less than 0.9)”. For the same molecule, the “HNF-3 beta RT-PCR detection cycle” value (24 hours) was < 35 cycles, the “Pdx-1 RT-PCR detection cycle” value (24 hours) was < 35 cycles and the “Pdx-1 gene expression relative to human pancreas” value (24 hours) was ~0.1 % of human pancreas levels. For the same molecule, the “glucagon RT-PCR detection cycle” value (24 hours) was < 24 cycles.
